Here are results for two compounds from patent publication EP3441077A1, “PHARMACEUTICAL PRODUCT FOR TREATING ANKYLOSING SPONDYLITIS AND COMBINED IMMUNE DEFECT, AND PREPARATION AND APPLICATION THEREOF” (Beijing Lu De Kai Qi Co., Ltd., priority 2016, dated 2017).

SMILES strings stand for the structures. Like-named read-outs stand apart in the source and are kept apart here. Marks after values point to notes of the source that are not given here.

Series [1] relates to mouse bone marrow polychromatic erythrocytes. The conditions noted are these: 50 mg/kg•bw, positive control; for Number of micronucleus: 5000 cells examined; for Micronucleus rate (‰): P<0.01 vs negative control.
Method: Test animals: The healthy Kunming mice provided by the Experimental Animal Center of the National Institute for the Control of Pharmaceutical and Biological Products are selected. • 3. Mouse bone marrow polychromatic erythrocyte micronucleus assay The assay was carried out via oral gavage and the administration was performed twice at intervals of 24 hr. 50 mice weighing 25-30 g are randomly divided into 5 groups according to body weight, 10 in each group, half male and half female. […] The doses of the pharmaceutical product for treating ankylosing spondylitis for combined immunodeficiency according to the present invention are 2.50, 5.00, and 10.00 g/kg•bw, respectively, which were adjusted to the desired concentration with distilled water. The animals were sacrificed by cervical dislocation six hours after the last administration of the pharmaceutical product for treating ankylosing spondylitis for combined immunodeficiency according to the present invention. The bone marrow of sternum was diluted with calf serum, smeared, fixed in methanol, and stained with Giemsa. Under the light microscope, 1000 polychromatic erythrocytes (PRC) were measured per animal, and the incidence of micronucleus was determined by the permillage of micronucleus-containing PRC and statistical process is performed.
For a further series, the system named is male mice. The conditions noted are these: 40 mg/kg•bw, positive control.
In series [2] the test system is patients with ankylosing spondylitis. The experiment in a line: Clinical trial in patients with ankylosing spondylitis. Format: in vivo, human. The conditions noted are these: for Cure / Effective / Improved / Ineffective / excellence / upturn: 100 patients per group. The method, then:
Clinical trials were performed in patients with ankylosing spondylitis. The criteria for inclusion are as follows: • (1) The New York Standard for Ankylosing Spondylitis revised in 1984 is met. • (2) The diagnostic criteria for the "renal deficiency and cold syndrome" of Ankylosing Spondylitis in Traditional Chinese Medicine is met. It is obtained by reference to the "Guidelines for Clinical Research of New Pharmaceutical products for Treating Arthralgia" and combined with the clinical experience of Professor Jiao Shude and Professor Yan Xiaoping. […] The five criteria for IBP are: age of onset <40 years old; insidious onset; improvement after exercise; no improvement after rest; and nocturnal pain (improvement after getting up). If the patient meets 4 of them, he or she can be confirmed to have IBP (sensitivity 77.0%, specificity 91.7%). […] Treatment method: a randomized control method was used. There are 100 patients in the test group, 100 patients in the control group 1, and 100 patients in the control group 2. […] Control group 1: the patients were orally administrated with loxoprofen sodium from Sankyo Co. Ltd., Japan twice a day in the morning and evening, and 3 months is a course of treatment. Control group 2: the patients were orally administrated with the traditional Chinese medicine for treating ankylosing spondylitis prepared in the examples of CN102091137B twice a day in the morning and evening, and 3 months is a course of treatment. No other medications for ankylosing spondylitis is administered during the course of treatment. In particular, the traditional Chinese medicine for treating ankylosing spondylitis prepared in the examples of CN102091137B is prepared as following: weighing the raw materials that contain in the formula ,that is 10 g of rhizoma cibotii, 15 g of pilose antler, 10 g of dipsacus asper, 5 g of scorpio, 15 g of kudzu vine root, 12 g of chuanxiong rhizome, 5 g of caulis spatholobi, 15 g of white paeony root, 15 g of common peony root, 10g of safflower carthamus, 15 g of medicinal cyathula root and 10 g of white mustard seed, adding 1500 ml of water, decocting with slow fire to concentrate the medicine liquid to 250 ml, filtering dregs of a decoction and preparing a decoction. Table 8 Indicators for efficacy evaluation in this clinical trial [table] […] Table 9 Statistical results of clinical trial After taking three courses of treatment, all the patients in the three groups stopped taking medication, and whether the symptoms were aggravated or slowed down was observed one month, three months, and twelve months after pharmaceutical product withdrawal. If the symptoms after a period of drug withdrawal were more serious than the symptoms at the time of drug withdrawal, it was labeled as "-", otherwise labeled as "+". If there were two grades in the difference, it was labeled as […]. For example, if the therapeutic effect of patient A at the time of drug withdrawal was improved, and the therapeutic effect twelve months after drug withdrawal was Ineffective, it was labeled as "-2". Table 10 Statistical results of clinical trial after pharmaceutical product withdrawal

Where [3] appears, read: At the time of drug withdrawal (after three courses).
[4] abbreviates: One course of treatment (3 months), oral twice a day, graded per Table 8.
Setting [5] is: One month after drug withdrawal.
Where [6] appears, read: Three courses of treatment, oral twice a day, graded per Table 8.
Setting [7] is: Twelve months after drug withdrawal.
[8] abbreviates: three months after drug withdrawal.

Method for male mice: Sperm abnormality assay in mice 50 sexually mature male mice weighing 30-35 g is randomly divided into 5 groups. […] The doses of the pharmaceutical product for treating ankylosing spondylitis for combined immunodeficiency according to the present invention is 1.25, 2.50, and 5.00 g/kg•bw, respectively, which were adjusted to the desired concentration with distilled water. The mice were administered via oral gavage once a day for 5 days, and the animals were sacrificed 30 days after the last gavage. The epididymis is sectioned and stained with eosin. Five animals were measured in each group and 1000 spermatozoa with intact structural were measured per animal, by which the incidence of sperm abnormality (in percentage) was calculated and statistical process is performed. […] Table 3 Statistical results of sperm abnormality assay in mice

As to `O=P1(N(CCCl)CCCl)NCCCO1` (stereo not shown) [cp, cyclophosphamide], in series [1] (Female mice), the Number of micronucleus worked out at 150 and the “Micronucleus rate (‰)” value is on record as 30.0* ‰. Also, in series [1] (Male mice), the Number of micronucleus turned out to be 167 and the “Micronucleus rate (‰)” value was 33.4* ‰. In the series with male mice (5000 sperms examined), the “Number of abnormal sperms” value is 487. Further, the “Rate of sperm abnormality (%)” value in the series with male mice (P<0.01 vs negative control) was 9.74* %.
Regarding `CC(C(=O)O)c1ccc(CC2CCCC2=O)cc1` (stereo not shown) [loxoprofen sodium], in series [2] (setting [3]), the Cure stood at 0 case, the Effective stood at 36 case, the Improved came to 3 case and the Ineffective stood at 61 case. In addition, in series [2] (setting [4]), the Cure was 0 case, the Ineffective was determined as 82 case, the excellence was found to be 0 case and the upturn is on record as 18 case. In series [2] (setting [5]), this compound came in with a Cure of 0 case, an Effective of 31 case, an Improved of 2 case and an Ineffective of 67 case. Moreover, in series [2] (setting [6]), the Cure was determined as 0 case, the Ineffective turned out to be 61 case, the excellence is 3 case and the upturn is recorded as 36 case. In series [2] (setting [7]), this compound came in with a Cure of 0 case, an Effective of 9 case, an Improved of 0 case and an Ineffective of 91 case. Further, the “course of the therapeutic effect after withdrawal (in words)” value in series [2] (after three courses of treatment and then withdrawal) is on record as “had more disease relapse”. Besides, in series [2] (setting [8]), the Cure is given as 0 case, the Effective worked out at 20 case, the Improved turned out to be 0 case and the Ineffective turned out to be 80 case.
